Results from paper PMC11882969 (Nature Communications, 2025).
Values joined by “and” are separate entries in the source; they are usually repeats but may differ in a detail not shown here. Equal entries are not always repeated.

Molecular target: hCB2 (Homo sapiens, UniProt P34972)
Experiment: bioSensAll ebBRET signaling profiling, hCB2
Assay type: cell-based
Parameters: host or cells: HEK293SL cells, transient PEI transfection
Details: for RE, relative efficacy: vs CP-55,940; for G13 hCB2 / G15 hCB2 / Gq hCB2 / Gs hCB2: raw signal
[1] = Log [Compound] (M) not printed (line after -13)

Chain of hCB2 (P34972 whole entry): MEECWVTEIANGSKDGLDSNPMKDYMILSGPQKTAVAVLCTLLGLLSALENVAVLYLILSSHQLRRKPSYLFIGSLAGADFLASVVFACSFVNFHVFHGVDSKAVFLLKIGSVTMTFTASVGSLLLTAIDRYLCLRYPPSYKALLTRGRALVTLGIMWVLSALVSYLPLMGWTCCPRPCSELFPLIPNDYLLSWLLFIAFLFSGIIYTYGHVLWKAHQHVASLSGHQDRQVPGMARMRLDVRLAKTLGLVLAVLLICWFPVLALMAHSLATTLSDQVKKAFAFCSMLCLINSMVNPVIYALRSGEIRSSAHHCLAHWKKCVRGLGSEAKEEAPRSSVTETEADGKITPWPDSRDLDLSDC

## COC(=O)C(C)(NC(=O)c1cc(C)n(-c2cccc(C(F)(F)F)c2)n1)c1cccs1 (stereo not drawn) [‘4042]
Log [Compound] (M) -4.22186
  Barr2+GRK2 hCB2: 36.6847 and 35.0372
  Gi1 hCB2: 75.671 and 56.3726
  Gi2 hCB2: 69.4439
  GoB hCB2: 52.0294 and 57.6529
  Gz hCB2: 65.903
  G13 hCB2: 669
  G15 hCB2: 923
  Gq hCB2: 1840
  Gs hCB2: 9076
Log [Compound] (M) -4.63927
  Barr2+GRK2 hCB2: 30.1112 and 31.9388
  Gi1 hCB2: 84.2769 and 74.9725
  Gi2 hCB2: 71.4813
  GoB hCB2: 57.2898 and 66.4321
  Gz hCB2: 53.7774
  G13 hCB2: 511
  G15 hCB2: 896
  Gq hCB2: 1838
  Gs hCB2: 9146
Log [Compound] (M) -5.05788
  Barr2+GRK2 hCB2: 34.1076 and 21.894
  Gi1 hCB2: 83.7031 and 72.7366
  Gi2 hCB2: 65.5506
  GoB hCB2: 61.864 and 59.6527
  Gz hCB2: 52.6347
Log [Compound] (M) -5.47381
  Barr2+GRK2 hCB2: 32.3148 and 21.944
  Gi1 hCB2: 87.9518 and 88.1124
  Gi2 hCB2: 70.9363
  GoB hCB2: 59.0585 and 62.0173
  Gz hCB2: 46.8061
Log [Compound] (M) -5.89285
  Barr2+GRK2 hCB2: 35.0413 and 26.4416
  Gi1 hCB2: 81.7804 and 90.251
  Gi2 hCB2: 70.7805
  GoB hCB2: 65.2185 and 62.9481
  Gz hCB2: 53.1772
Log [Compound] (M) -6.31878
  Barr2+GRK2 hCB2: 26.1148 and 22.8935
  Gi1 hCB2: 87.5021 and 87.0754
  Gi2 hCB2: 73.3371
  GoB hCB2: 60.7357 and 59.0239
  Gz hCB2: 50.6781
Log [Compound] (M) -6.72585
  Barr2+GRK2 hCB2: 32.0907 and 32.9383
  Gi1 hCB2: 83.1759 and 83.592
  Gi2 hCB2: 72.2081
  GoB hCB2: 57.8234 and 61.5268
  Gz hCB2: 54.4186
Log [Compound] (M) -7.14267
  Barr2+GRK2 hCB2: 30.5594 and 25.1923
  Gi1 hCB2: 86.1686 and 79.3795
  Gi2 hCB2: 59.0489
  GoB hCB2: 60.3698 and 62.0676
  Gz hCB2: 81.8754 and 46.0416
Log [Compound] (M) -7.55284
  Barr2+GRK2 hCB2: 24.7329 and 21.1444
  Gi1 hCB2: 76.7565 and 80.3516
  Gi2 hCB2: 59.4123
  GoB hCB2: 49.2391 and 57.2756
  Gz hCB2: 76.5196 and 38.421
Log [Compound] (M) -8
  Barr2+GRK2 hCB2: 20.8112 and 19.8451
  Gi1 hCB2: 58.7695 and 64.9921
  Gi2 hCB2: 62.9552
  GoB hCB2: 43.3382 and 49.9051
Log [Compound] (M) -8.22186
  Barr2+GRK2 hCB2: 15.2835 and 10.4
  Gi1 hCB2: 52.319 and 51.5606
  Gi2 hCB2: 51.7297
  GoB hCB2: 36.4463 and 41.3775
  Gz hCB2: 67.5634 and 41.7257
Log [Compound] (M) -8.39794
  Barr2+GRK2 hCB2: 10.0546 and 6.052
  Gi1 hCB2: 41.3253 and 50.1024
  Gi2 hCB2: 43.6058
  GoB hCB2: 31.1707 and 34.2586
Log [Compound] (M) -8.68787
  Barr2+GRK2 hCB2: 5.6847 and 8.001
  Gi1 hCB2: 42.5968 and 33.949
  Gi2 hCB2: 35.8583
Log [Compound] (M) -9.15521
  Gi2 hCB2: 25.8008
Log [Compound] (M) -9.61989
  Gi2 hCB2: -4.618
Log [Compound] (M) -10.0969
  Gi2 hCB2: -5.163
Log [Compound] (M) -10.5529
  Gi2 hCB2: -5.566
Log [Compound] (M) -11.0177
  Gi2 hCB2: -11.8727
Log [Compound] (M) -11.4949
  Gi2 hCB2: -13.975
Log [Compound] (M) -11.9208
  Gi2 hCB2: -11.7429
Log [Compound] (M) -12.3979
  Gi2 hCB2: -12.3529
Log [Compound] (M) -12.8861
  Gi2 hCB2: -13.7415
Log [Compound] (M) -13
  Gi2 hCB2: -11.7689
[1]
  Barr2+GRK2 hCB2: 1.105
  Gi1 hCB2: -2.635
  GoB hCB2: -0.7449
  Gz hCB2: 1.526
hCB2 Barr2 + GRK2
  pEC50 [95% CI]: 8.26 [8.1 – 8.5]
hCB2 Gi1
  pEC50 [95% CI]: 8.58 [8.5 – 8.7]
  RE, relative efficacy: 0.63
hCB2 Gi2
  pEC50 [95% CI]: 8.90 [8.8 – 9.0]
  RE, relative efficacy: 0.59
hCB2 GoB
  pEC50 [95% CI]: 8.60 [8.5 – 8.7]
  RE, relative efficacy: 0.47
hCB2 Gz
  pEC50 [95% CI]: 8.87 [8.5 – 9.3]
  RE, relative efficacy: 0.38
hCB2 ßarr2+GRK2
  RE, relative efficacy: 0.82
